Values joined by “and” are separate entries in the source; they are usually repeats but may differ in a detail not shown here. Equal values may be shown once.
Assays:
[1] = tested on: washed human platelets (P2Y1-R/Gαq signaling); experiment: IP1 accumulation assay (HTRF) in washed human platelets; type: cell-based; details: washed human platelets, ADP 100 μM, antagonists 10 μM, Gq inhibitor 100 nM, 2 h, apyrase 0.02 U/mL, result in words
Procedure: (§1) As performed in HEK293T cells, we thus quantified intracellular IP1 levels to monitor Gαq protein-dependent signaling pathways.
Human platelets were prepared from adult healthy volunteers free of antiplatelet or anti-inflammatory medication since at least ten days. […] After two steps of centrifugation and suspension in Tyrode’s buffer (140 mM NaCl, 5 mM KCl, 5 mM KH2PO4, 1 mM MgSO4, 10 mM HEPES, 5 mM glucose and 0.35% (w/v) BSA, pH 6,7), washed platelets were suspended in the same buffer adjusted to pH 7.4 and containing 1 mM CaCl2. The final platelet suspension was adjusted to 3.10^8 platelets/mL and rested for 45 min in the presence of 0.02 U/mL apyrase and 10 μM indomethacin at 37 °C prior experiments. PGI2 (0.5 μM) was added before centrifugation steps to avoid platelet activation.
(§2) Quantification of intracellular IP1 was performed using the HTRF (Homogeneous Time Resolved Fluorescence) IP1 competitive immunoassay (IP-One Tb kit. Cisbio. France) according to the manufacturer’s instructions. Briefly, 20,000 HEK293T/17 cells or 3.10^6 platelets were distributed in a 384-well white microplate (Greiner) and incubated with the indicated molecules for 30 min or 2 h at 37 °C in the presence of 50 mM of LiCl to prevent IP1 degradation. After addition of d2-labeled IP1 (acceptor) and anti-IP1-Cryptate (donor) for 1 h, the specific FRET signals were calculated by the fluorescence ratio of the acceptor and donor emission signal (665/620 nm) collected using a modified Infinite F500 (Tecan Group Ltd). Conversion of the HTRF ratio of each sample into IP1 concentrations was performed on the basis of a standard curve to determine the linear dynamic range of the assay.

[2] = molecular target: T1, Human P2Y1-R (Homo sapiens, UniProt P47900); experiment: IP1 accumulation assay (HTRF) in HEK293T cells expressing P2Y1-R; type: cell-based; details: ADP 100 μM, MRS2179 10 μM, Gq inhibitor 100 nM, 2 h, result in words
T1 construct: expressed in transfected cells; host or cells: HEK293T/17
Description: Since Gαq protein activation is known to induce PLC activation leading to IP3 and subsequent cytosolic calcium release, we analyzed the constitutive Gαq-dependent P2Y1-R signaling by quantifying intracellular inositol monophosphate (IP1) using a monoclonal antibody-based competitive ELISA. IP1 is a downstream metabolite of IP3 that accumulates in cells following Gαq protein-coupled receptor activation, making it an ideal readout for Gαq protein-dependent signaling pathways.

[3] = tested on: washed murine platelets (P2Y1-R/Gαq signaling); experiment: IP1 accumulation assay (HTRF) in washed murine platelets; type: cell-based, mouse; details: washed murine platelets, ADP 100 μM, MRS2179 10 μM, Gq inhibitor 100 nM, 2 h, apyrase 0.02 U/mL, result in words
Procedure: as §1
Platelet-rich plasma (PRP) was obtained by mixing blood with 1 volume of modified Hepes Tyrode’s buffer (137 mM NaCl, 2 mM KCl, 12 mM NaHCO3, 0.3 mM NaH2PO4, 1 mM MgCl2, 2 mM CaCl2, 5.5 mM glucose, 5 mM HEPES, and 0.35% (w/v) BSA, pH 6.7) followed by a centrifugation at 150 g for 2 min at 37 °C. Then, platelets were pelleted by centrifugation at 1000 g for 4 min, resuspended in modified Hepes Tyrode’s buffer (pH 7.4), adjusted to 3.10^8 platelets/mL in the presence of 0.02 U/mL of apyrase and 10 μM indomethacin and rested for 45 minutes at 37°C before platelet stimulation. PGI2 (0.5 μM) was added before centrifugation steps to avoid platelet activation.
as §2

[4] = molecular target: T1, Human P2Y1-R; experiment: β-arrestin 2 recruitment BRET1 assay (β-arrestin 2-RLuc / P2Y1-R-Venus) in HEK293T cells; type: cell-based; details: for b-arrestin 2 signaling, Ligand-modulated BRET (% of maximum MRS2179 mean value): Figure 4b, individual replicates; for Effect on β-arrestin 2 recruitment / BRET signal between P2Y1-R-Venus and β-arrestin 2-RLuc: HEK293T cells, high P2Y1-R expression, result in words; for EC50 / pEC50 ± s.e.m.: β-Arrestin 2 signaling, Fig. 4b, 15 min
Description: We assessed β-arrestin 2 recruitment to the receptor using BRET^1 assay. The assay measures the interaction between β-arrestin 2 fused to the Renilla reniformis luciferase (RLuc) energy donor and the receptor fused to fluorescent Venus energy acceptor (Fig. 3a). The recruitment of cytosolic β-arrestin 2 to the receptor at the plasma membrane in the presence of an agonist will promote a significant increase of the BRET signal compared to the basal state, reflecting the close proximity between the β-arrestin 2 energy donor and the receptor energy acceptor [22].
Human P2Y1-R (NCBI Reference Sequence: NM_002563.2) and P2Y12-R (NCBI Reference Sequence: NM_022788.3) were fused to double Myc epitope and rat AT1-R (NCBI Reference Sequence: NM_030985.4) to HA tag in N-terminus extracellular region. Alternatively, receptors were also fused to Venus tag in C-terminus intracellular region. Plasmids encoding Gαq-RLuc8, GFP2-Gγ2 and untagged Gβ1 were previously described. ADP was purchased from Sigma-Aldrich/Merck (Darmstadt, Germany). […] The Gq inhibitor (FR900359) was kindly supplied by Evi Kostenis (University of Bonn. Germany).
G protein activation and β-arrestin 2 recruitment were performed as previously described. Briefly, vectors encoding receptors, Gαq-RLuc8, GFP2-Gγ2, Gβ1, or β-arrestin 2 were transiently cotransfected into HEK293T/17 cells as indicated in the figure legends. Forty-eight hours after transfection, cells were washed and resuspended in PBS containing 0.1% (w/v) glucose at room temperature and then distributed (80 μg proteins/well) in a 96-well microplate (PerkinElmer). For G protein activation experiments (BRET^2), cells were incubated in the absence (basal BRET signal) or in the presence of ligand for 1 minute. BRET signal between RLuc8 and GFP2 was measured after addition of the luciferase substrate coelenterazine 400a (5 μM). For β-arrestin 2 recruitment (BRET^1), cells were stimulated with ligands for 5 or 15 min. BRET signal was recorded after incubation with coelenterazine h (5 μM) for 8 min. For kinetics studies, BRET signal between RLuc and Venus was recorded at 20-s intervals at basal state for the 2 first minutes and then for 5 min after ligand injection. For saturation curves (BRET^1), the expression level of Venus- or RLuc-tagged protein was determined by direct measurement of total fluorescence and luminescence respectively. Total fluorescence was first measured with an excitation filter at 485 nm and an emission filter at 520 nm. Then, the same sample was incubated for 8 minutes with 5 μM coelenterazine h and the total luminescence was measured. BRET^2 and BRET^1 readings were collected using a modified Infinite F500 (Tecan Group Ltd). The BRET^2 signal was calculated by the ratio of emission of GFP2 (510–540 nm) to RLuc8 (370–450 nm) and the BRET^1 signal by the ratio of emission of Venus (520–570 nm) to RLuc (370–480 nm). Sometimes, results are expressed as the Net BRET computed by deducting the BRET background signal (obtained in the presence of the energy donor alone) from the BRET signal (acquired from cells expressing both the energy donor and acceptor).

T1 sequence (P47900 whole entry): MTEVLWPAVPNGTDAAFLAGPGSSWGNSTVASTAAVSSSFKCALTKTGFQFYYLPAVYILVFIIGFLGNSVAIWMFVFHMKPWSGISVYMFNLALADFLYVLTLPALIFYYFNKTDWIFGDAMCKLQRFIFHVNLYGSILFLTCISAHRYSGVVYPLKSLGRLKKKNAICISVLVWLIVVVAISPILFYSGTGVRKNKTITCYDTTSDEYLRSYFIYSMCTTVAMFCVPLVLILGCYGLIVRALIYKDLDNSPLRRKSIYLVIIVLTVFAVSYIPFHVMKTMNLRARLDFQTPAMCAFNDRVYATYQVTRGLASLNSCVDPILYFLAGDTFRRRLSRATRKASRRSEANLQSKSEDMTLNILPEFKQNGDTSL

SMILES | Effect on IP1 levels [1] | Effect on IP1 production [2] | Effect on IP1 levels [3] | b-arrestin 2 signaling, Ligand-modulated BRET (% of maximum MRS2179 mean value) ([4]; [Ligand] 1.00E-04 M) | b-arrestin 2 signaling, Ligand-modulated BRET (% of maximum MRS2179 mean value) ([4]; [Ligand] 1.00E-05 M) | b-arrestin 2 signaling, Ligand-modulated BRET (% of maximum MRS2179 mean value) ([4]; [Ligand] 1.00E-06 M) | b-arrestin 2 signaling, Ligand-modulated BRET (% of maximum MRS2179 mean value) ([4]; [Ligand] 1.00E-07 M) | b-arrestin 2 signaling, Ligand-modulated BRET (% of maximum MRS2179 mean value) ([4]; [Ligand] 1.00E-08 M) | b-arrestin 2 signaling, Ligand-modulated BRET (% of maximum MRS2179 mean value) ([4]; [Ligand] 1.00E-09 M) | b-arrestin 2 signaling, Ligand-modulated BRET (% of maximum MRS2179 mean value) ([4]; [Ligand] 1.00E-10 M) | Effect on β-arrestin 2 recruitment / BRET signal between P2Y1-R-Venus and β-arrestin 2-RLuc [4] | Signaling bias (β-arrestin 2 versus Gαq protein signaling) ([4]; compared to MRS2179, from potencies of Table 1) | EC50 [4] | pEC50 ± s.e.m. [4]
Nc1ncnc2c1ncn2[C@@H]1O[C@H](COP(=O)(O)OP(=O)(O)O)[C@@H](O)[C@H]1O [ADP, adenosine diphosphate] | significantly increased | slightly but significantly potentiated | significantly increased |  |  |  |  |  |  |  |  |  |  | 
CNc1nc(I)nc2c1ncn2[C@H]1C[C@H](OP(=O)(O)O)[C@]2(COP(=O)(O)O)C[C@H]12 [MRS2500, 2-iodo-N6-methyl-(N)-methanocarba-2′-deoxyadenosine-3′,5′-bisphosphate] | inverse agonist efficacy |  |  | -104.002 % of maximum MRS2179 mean value and -94.5729 % of maximum MRS2179 mean value and -88.0915 % of maximum MRS2179 mean value and -87.9506 % of maximum MRS2179 mean value and -95.5776 % of maximum MRS2179 mean value | -100.008 % of maximum MRS2179 mean value and -86.7675 % of maximum MRS2179 mean value and -90.0217 % of maximum MRS2179 mean value and -77.5434 % of maximum MRS2179 mean value and -80.2036 % of maximum MRS2179 mean value | -95.5169 % of maximum MRS2179 mean value and -78.4136 % of maximum MRS2179 mean value and -91.3759 % of maximum MRS2179 mean value and -80.0813 % of maximum MRS2179 mean value and -75.5319 % of maximum MRS2179 mean value | -75.2707 % of maximum MRS2179 mean value and -41.8369 % of maximum MRS2179 mean value and -76.2614 % of maximum MRS2179 mean value and -66.0129 % of maximum MRS2179 mean value and -61.7221 % of maximum MRS2179 mean value | -7.396 % of maximum MRS2179 mean value and -28.7379 % of maximum MRS2179 mean value and -20.7409 % of maximum MRS2179 mean value and -45.6895 % of maximum MRS2179 mean value and -5.348 % of maximum MRS2179 mean value | -12.4711 % of maximum MRS2179 mean value and -18.0888 % of maximum MRS2179 mean value and -11.5273 % of maximum MRS2179 mean value and -5.043 % of maximum MRS2179 mean value and 9.479 % of maximum MRS2179 mean value | -23.8118 % of maximum MRS2179 mean value and -10.0375 % of maximum MRS2179 mean value and -6.745 % of maximum MRS2179 mean value and -2.51 % of maximum MRS2179 mean value and -4.926 % of maximum MRS2179 mean value | behaved as inverse agonists | biased inverse agonist | 0.0475 µM | 7.323 ± 0.1193
CNc1nc(Cl)nc2c1ncn2[C@H]1CC(OP(=O)(O)O)[C@]2(COP(=O)(O)O)C[C@H]12 (stereo in doubt) [MRS2279] | inverse agonist efficacy |  |  | -69.6106 % of maximum MRS2179 mean value and -105.156 % of maximum MRS2179 mean value and -85.2747 % of maximum MRS2179 mean value and -86.0383 % of maximum MRS2179 mean value and -102.622 % of maximum MRS2179 mean value | -58.9493 % of maximum MRS2179 mean value and -35.292 % of maximum MRS2179 mean value and -0.8674 % of maximum MRS2179 mean value and -67.8538 % of maximum MRS2179 mean value and -74.7757 % of maximum MRS2179 mean value | -39.831 % of maximum MRS2179 mean value and -16.8165 % of maximum MRS2179 mean value and 4.878 % of maximum MRS2179 mean value and -40.0637 % of maximum MRS2179 mean value and -56.9245 % of maximum MRS2179 mean value | -39.6457 % of maximum MRS2179 mean value and -31.8109 % of maximum MRS2179 mean value and -14.3137 % of maximum MRS2179 mean value and -31.2635 % of maximum MRS2179 mean value and -51.8509 % of maximum MRS2179 mean value | -22.0748 % of maximum MRS2179 mean value and -36.9002 % of maximum MRS2179 mean value and -1.913 % of maximum MRS2179 mean value and -12.8092 % of maximum MRS2179 mean value and -19.8439 % of maximum MRS2179 mean value | -17.6957 % of maximum MRS2179 mean value and -18.0324 % of maximum MRS2179 mean value and -16.7903 % of maximum MRS2179 mean value and 1.141 % of maximum MRS2179 mean value and 5.256 % of maximum MRS2179 mean value | -24.7041 % of maximum MRS2179 mean value and -19.9635 % of maximum MRS2179 mean value and -11.9373 % of maximum MRS2179 mean value and -22.7633 % of maximum MRS2179 mean value and -19.9712 % of maximum MRS2179 mean value | behaved as inverse agonists |  | 19.4 µM | 4.712 ± 0.2838
